In publication PMC6409085, “Three odorant-binding proteins are involved in the behavioral response of Sogatella furcifera to rice plant volatiles” (PeerJ, 2019):
Values joined by “and” are separate entries in the source; they are usually repeats but may differ in a detail not shown here. Equal values may be shown once.

Experiments:
Assay in all cases: biochemical
Format in all cases: binding
SfurOBP1 = SfurOBP1 (Sogatella furcifera, UniProt V5T8N5); conditions: for Fluorescence competitive binding assay, fluorescence intensity: OBP1, three replicate columns
Outline: (§1)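 Fluorescence competitive binding used 2.0 µM SfurOBP and 2.0 µM 1-NPN reporter in 50 mM Tris-HCl, pH 7.4, with odorants at 2-20 µM. Fluorescence was read 2 min after adding the odorant (excitation 337 nm, emission 390-490 nm), in triplicate. Ki was calculated from IC50 as IC50/(1 + [1-NPN]/K1-NPN).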

SfurOBP11 = SfurOBP11 (Sogatella furcifera, UniProt V5T6E3)
Outline: as §1

SfurOBP2 = SfurOBP2 (Sogatella furcifera, UniProt V5T759)
Outline: as §1

SfurOBP3 = SfurOBP3 (Sogatella furcifera, UniProt V5T818); conditions: for Fluorescence competitive binding assay, fluorescence intensity: OBP3, three replicate columns
Outline: as §1

Sequence of SfurOBP2 (V5T759 entry or part of it): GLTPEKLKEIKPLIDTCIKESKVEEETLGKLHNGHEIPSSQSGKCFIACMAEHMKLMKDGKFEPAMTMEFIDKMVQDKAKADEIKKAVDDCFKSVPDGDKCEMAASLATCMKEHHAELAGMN
Sequence of SfurOBP11 (V5T6E3 entry or part of it): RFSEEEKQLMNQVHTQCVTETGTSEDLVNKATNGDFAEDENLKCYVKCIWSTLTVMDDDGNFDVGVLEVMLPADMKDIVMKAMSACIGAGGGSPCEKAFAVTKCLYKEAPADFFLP
Sequence of SfurOBP1 (V5T8N5 entry or part of it): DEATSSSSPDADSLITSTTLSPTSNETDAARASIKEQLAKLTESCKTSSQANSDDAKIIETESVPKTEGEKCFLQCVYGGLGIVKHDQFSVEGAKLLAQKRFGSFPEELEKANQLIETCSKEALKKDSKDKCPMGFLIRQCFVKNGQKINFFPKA
Sequence of SfurOBP3 (V5T818 entry or part of it): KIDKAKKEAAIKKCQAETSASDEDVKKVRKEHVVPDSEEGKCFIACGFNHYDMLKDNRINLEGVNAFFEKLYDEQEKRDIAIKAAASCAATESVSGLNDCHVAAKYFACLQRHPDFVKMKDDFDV

CCCCCCCCCCOCCCCCCCCCC [didecyl ether]
Fluorescence competitive binding assay, fluorescence intensity (SfurOBP1; ligand concentration 2 (μM)): 13439 and 10181 and 10387
Fluorescence competitive binding assay, fluorescence intensity (SfurOBP1; ligand concentration 4 (μM)): 12999 and 14054 and 13054
Fluorescence competitive binding assay, fluorescence intensity (SfurOBP1; ligand concentration 6 (μM)): 17843 and 17435 and 18755
Fluorescence competitive binding assay, fluorescence intensity (SfurOBP1; ligand concentration 8 (μM)): 20344 and 21618 and 19391
Fluorescence competitive binding assay, fluorescence intensity (SfurOBP1; ligand concentration 10 (μM)): 25143 and 20920 and 29597
Fluorescence competitive binding assay, fluorescence intensity (SfurOBP1; ligand concentration 12 (μM)): 25050 and 26471 and 24718
Fluorescence competitive binding assay, fluorescence intensity (SfurOBP1; ligand concentration 14 (μM)): 31790 and 28307 and 28799
Fluorescence competitive binding assay, fluorescence intensity (SfurOBP1; ligand concentration 16 (μM)): 25660 and 26360 and 27874
Fluorescence competitive binding assay, fluorescence intensity (SfurOBP1; ligand concentration 18 (μM)): 34663 and 37908 and 36994
Fluorescence competitive binding assay, fluorescence intensity (SfurOBP1; ligand concentration 20 (μM)): 37718 and 33824 and 31648
IC50 (SfurOBP1; SfurOBP1, protein and 1-NPN both 2.0 µM, competitor 2-20 µM, read-out: IC50): > 20 µM
IC50 (SfurOBP11; SfurOBP11, protein and 1-NPN both 2.0 µM, competitor 2-20 µM, read-out: IC50): > 20 µM
Fluorescence intensity, fluorescence competitive binding assay, OBP11 (SfurOBP11; ligand concentration 2, replicate 1): 43164
Fluorescence intensity, fluorescence competitive binding assay, OBP11 (SfurOBP11; ligand concentration 2, replicate 2): 38605
Fluorescence intensity, fluorescence competitive binding assay, OBP11 (SfurOBP11; ligand concentration 2, replicate 3): 37407
Fluorescence intensity, fluorescence competitive binding assay, OBP11 (SfurOBP11; ligand concentration 4, replicate 1): 45394
Fluorescence intensity, fluorescence competitive binding assay, OBP11 (SfurOBP11; ligand concentration 4, replicate 2): 44519
Fluorescence intensity, fluorescence competitive binding assay, OBP11 (SfurOBP11; ligand concentration 4, replicate 3): 44324
Fluorescence intensity, fluorescence competitive binding assay, OBP11 (SfurOBP11; ligand concentration 6, replicate 1): 52018
Fluorescence intensity, fluorescence competitive binding assay, OBP11 (SfurOBP11; ligand concentration 6, replicate 2): 51596
Fluorescence intensity, fluorescence competitive binding assay, OBP11 (SfurOBP11; ligand concentration 6, replicate 3): 52439
Fluorescence intensity, fluorescence competitive binding assay, OBP11 (SfurOBP11; ligand concentration 8, replicate 1): 52547
Fluorescence intensity, fluorescence competitive binding assay, OBP11 (SfurOBP11; ligand concentration 8, replicate 2): 53605
Fluorescence intensity, fluorescence competitive binding assay, OBP11 (SfurOBP11; ligand concentration 8, replicate 3): 57390
Fluorescence intensity, fluorescence competitive binding assay, OBP11 (SfurOBP11; ligand concentration 10, replicate 1): 53386
Fluorescence intensity, fluorescence competitive binding assay, OBP11 (SfurOBP11; ligand concentration 10, replicate 2): 50348
Fluorescence intensity, fluorescence competitive binding assay, OBP11 (SfurOBP11; ligand concentration 10, replicate 3): 61467
Fluorescence intensity, fluorescence competitive binding assay, OBP11 (SfurOBP11; ligand concentration 12, replicate 1): 60450
Fluorescence intensity, fluorescence competitive binding assay, OBP11 (SfurOBP11; ligand concentration 12, replicate 2): 60637
Fluorescence intensity, fluorescence competitive binding assay, OBP11 (SfurOBP11; ligand concentration 12, replicate 3): 60823
Fluorescence intensity, fluorescence competitive binding assay, OBP11 (SfurOBP11; ligand concentration 14, replicate 1): 64649
Fluorescence intensity, fluorescence competitive binding assay, OBP11 (SfurOBP11; ligand concentration 14, replicate 2): 70642
Fluorescence intensity, fluorescence competitive binding assay, OBP11 (SfurOBP11; ligand concentration 14, replicate 3): 65311
Fluorescence intensity, fluorescence competitive binding assay, OBP11 (SfurOBP11; ligand concentration 16, replicate 1): 64270
Fluorescence intensity, fluorescence competitive binding assay, OBP11 (SfurOBP11; ligand concentration 16, replicate 2): 67002
Fluorescence intensity, fluorescence competitive binding assay, OBP11 (SfurOBP11; ligand concentration 16, replicate 3): 65982
Fluorescence intensity, fluorescence competitive binding assay, OBP11 (SfurOBP11; ligand concentration 18, replicate 1): 78706
Fluorescence intensity, fluorescence competitive binding assay, OBP11 (SfurOBP11; ligand concentration 18, replicate 2): 81987
Fluorescence intensity, fluorescence competitive binding assay, OBP11 (SfurOBP11; ligand concentration 18, replicate 3): 75370
Fluorescence intensity, fluorescence competitive binding assay, OBP11 (SfurOBP11; ligand concentration 20, replicate 1): 97463
Fluorescence intensity, fluorescence competitive binding assay, OBP11 (SfurOBP11; ligand concentration 20, replicate 2): 75326
Fluorescence intensity, fluorescence competitive binding assay, OBP11 (SfurOBP11; ligand concentration 20, replicate 3): 72923
IC50 (SfurOBP2; SfurOBP2, protein and 1-NPN both 2.0 µM, competitor 2-20 µM, read-out: IC50): > 20 µM
Fluorescence competitive binding assay, OBP2 (raw fluorescence reading) (SfurOBP2; ligand concentration 2 (unit not given), replicate column 1 of 3): 18915
Fluorescence competitive binding assay, OBP2 (raw fluorescence reading) (SfurOBP2; ligand concentration 2 (unit not given), replicate column 2 of 3): 20597
Fluorescence competitive binding assay, OBP2 (raw fluorescence reading) (SfurOBP2; ligand concentration 2 (unit not given), replicate column 3 of 3): 23440
Fluorescence competitive binding assay, OBP2 (raw fluorescence reading) (SfurOBP2; ligand concentration 4 (unit not given), replicate column 1 of 3): 24181
Fluorescence competitive binding assay, OBP2 (raw fluorescence reading) (SfurOBP2; ligand concentration 4 (unit not given), replicate column 2 of 3): 28014
Fluorescence competitive binding assay, OBP2 (raw fluorescence reading) (SfurOBP2; ligand concentration 4 (unit not given), replicate column 3 of 3): 25410
Fluorescence competitive binding assay, OBP2 (raw fluorescence reading) (SfurOBP2; ligand concentration 6 (unit not given), replicate column 1 of 3): 34688
Fluorescence competitive binding assay, OBP2 (raw fluorescence reading) (SfurOBP2; ligand concentration 6 (unit not given), replicate column 2 of 3): 31794
Fluorescence competitive binding assay, OBP2 (raw fluorescence reading) (SfurOBP2; ligand concentration 6 (unit not given), replicate column 3 of 3): 34987
Fluorescence competitive binding assay, OBP2 (raw fluorescence reading) (SfurOBP2; ligand concentration 8 (unit not given), replicate column 1 of 3): 33082
Fluorescence competitive binding assay, OBP2 (raw fluorescence reading) (SfurOBP2; ligand concentration 8 (unit not given), replicate column 2 of 3): 40303
Fluorescence competitive binding assay, OBP2 (raw fluorescence reading) (SfurOBP2; ligand concentration 8 (unit not given), replicate column 3 of 3): 37763
Fluorescence competitive binding assay, OBP2 (raw fluorescence reading) (SfurOBP2; ligand concentration 10 (unit not given), replicate column 1 of 3): 37285
Fluorescence competitive binding assay, OBP2 (raw fluorescence reading) (SfurOBP2; ligand concentration 10 (unit not given), replicate column 2 of 3): 44653
Fluorescence competitive binding assay, OBP2 (raw fluorescence reading) (SfurOBP2; ligand concentration 10 (unit not given), replicate column 3 of 3): 45169
Fluorescence competitive binding assay, OBP2 (raw fluorescence reading) (SfurOBP2; ligand concentration 12 (unit not given), replicate column 1 of 3): 40538
Fluorescence competitive binding assay, OBP2 (raw fluorescence reading) (SfurOBP2; ligand concentration 12 (unit not given), replicate column 2 of 3): 46457
Fluorescence competitive binding assay, OBP2 (raw fluorescence reading) (SfurOBP2; ligand concentration 12 (unit not given), replicate column 3 of 3): 42564
Fluorescence competitive binding assay, OBP2 (raw fluorescence reading) (SfurOBP2; ligand concentration 14 (unit not given), replicate column 1 of 3): 47395
Fluorescence competitive binding assay, OBP2 (raw fluorescence reading) (SfurOBP2; ligand concentration 14 (unit not given), replicate column 2 of 3): 46610
Fluorescence competitive binding assay, OBP2 (raw fluorescence reading) (SfurOBP2; ligand concentration 14 (unit not given), replicate column 3 of 3): 49253
Fluorescence competitive binding assay, OBP2 (raw fluorescence reading) (SfurOBP2; ligand concentration 16 (unit not given), replicate column 1 of 3): 41133
Fluorescence competitive binding assay, OBP2 (raw fluorescence reading) (SfurOBP2; ligand concentration 16 (unit not given), replicate column 2 of 3): 50168
Fluorescence competitive binding assay, OBP2 (raw fluorescence reading) (SfurOBP2; ligand concentration 16 (unit not given), replicate column 3 of 3): 50416
Fluorescence competitive binding assay, OBP2 (raw fluorescence reading) (SfurOBP2; ligand concentration 18 (unit not given), replicate column 1 of 3): 50240
Fluorescence competitive binding assay, OBP2 (raw fluorescence reading) (SfurOBP2; ligand concentration 18 (unit not given), replicate column 2 of 3): 52962
Fluorescence competitive binding assay, OBP2 (raw fluorescence reading) (SfurOBP2; ligand concentration 18 (unit not given), replicate column 3 of 3): 54896
Fluorescence competitive binding assay, OBP2 (raw fluorescence reading) (SfurOBP2; ligand concentration 20 (unit not given), replicate column 1 of 3): 51479
Fluorescence competitive binding assay, OBP2 (raw fluorescence reading) (SfurOBP2; ligand concentration 20 (unit not given), replicate column 2 of 3): 53666
Fluorescence competitive binding assay, OBP2 (raw fluorescence reading) (SfurOBP2; ligand concentration 20 (unit not given), replicate column 3 of 3): 47381
Fluorescence competitive binding assay, fluorescence intensity (SfurOBP3; ligand concentration 2): 87733 and 85025 and 77897
Fluorescence competitive binding assay, fluorescence intensity (SfurOBP3; ligand concentration 4): 115777 and 106868 and 104692
Fluorescence competitive binding assay, fluorescence intensity (SfurOBP3; ligand concentration 6): 125530 and 125631 and 129726
Fluorescence competitive binding assay, fluorescence intensity (SfurOBP3; ligand concentration 8): 107521 and 145667 and 147221
Fluorescence competitive binding assay, fluorescence intensity (SfurOBP3; ligand concentration 10): 173091 and 157740 and 127122
Fluorescence competitive binding assay, fluorescence intensity (SfurOBP3; ligand concentration 12): 158103 and 182941 and 142916
Fluorescence competitive binding assay, fluorescence intensity (SfurOBP3; ligand concentration 14): 176147 and 111843 and 160442
Fluorescence competitive binding assay, fluorescence intensity (SfurOBP3; ligand concentration 16): 151941 and 158990 and 157774
Fluorescence competitive binding assay, fluorescence intensity (SfurOBP3; ligand concentration 18): 173084 and 168625 and 167342
Fluorescence competitive binding assay, fluorescence intensity (SfurOBP3; ligand concentration 20): 193319 and 125518 and 175321
IC50 (SfurOBP3; SfurOBP3, protein and 1-NPN both 2.0 µM, competitor 2-20 µM, read-out: IC50): > 20 µM
